Experimental data published in article PMC10406726, “Development, scrutiny, and modulation of transient reporter gene assays of the xenobiotic metabolism pathway in zebrafish hepatocytes” (Cell Biology and Toxicology, 2021).
Read-outs that look alike come from different tables or passages of the source.

Columns and labels:
Assay type in all cases: cell-based, zebrafish (Danio rerio)
[1] = system: AhR (AhR/ARNT/XRE pathway); assay: AhR-responsive transient dual luciferase reporter gene (DLR) assay in ZFL cells; conditions: zebrafish; for IC50 / EC50: BNF exposure; for EC50 at 24 h: TCDD exposure, 4PL regression
Method: (§1) ZFL cells were seeded either into white, clear-bottom 96-well microtiter plates (Corning, New York, USA; for DLR assays) or transparent 96-well microtiter plates (Corning, New York, USA; for viability assays) at a density of 1.5 × 10^5 cells/mL, in 100 μL/well. After 24 h of incubation, cells reached a confluence of about 80%.
(§2) The transient transfection was conducted in a 2-μg transfection reagent to 1 μg plasmid DNA ratio, applying the XHP transfection reagent (Roche, Mannheim, Germany). Specific transfection optimization experiments were reported priory (Lungu-Mitea et al. [2018]). The transient transfection reaction was incubated as a co-transfection in a 10:1 reporter to control ratio (0.9 μg reporter plasmid, 0.1 μg control plasmid) for 30 min, before adding the reaction mixture to the cells. Firefly luciferase-bearing vectors were used as the primary reporter plasmids, and Renilla luciferase-bearing vectors were used for normalization (control plasmid). Ten microliter per well of the transfection reaction mix was added to the cells and incubated for 24 h. Following (Lungu-Mitea and Lundqvist [2020]), cells used in both DLR and viability assays were transiently transfected.
(§3) Prepared aliquots of stock solutions were thawed and further titrated using the nutrition medium supplemented with 5‰ (v/v) DMSO as a solvent. […] Different exposure regimes were applied. […] All potential co-transfection combinations were screened in this initial approach. […] Further, cells transfected with candidate plasmid combinations were subjected to a TCDD exposure regime from 100 pM to 100 nM (0.1, 0.3, 1, 3, 10, 30, 100 nM). Cells were exposed in 100 μL/well of the specifically spiked nutrition medium. Solvent controls (negative controls) were conducted in six replicates for every specific experiment.
(§4) After 24 h of exposure to AhR-agonists, cells on white 96-well microtiter plates were lysed in 20-μL passive lysis buffer (PLB; Promega, Madison, USA), and quantitative AhR-dependent luminescence was measured via Dual-Luciferase® Reporter Assay (DLR; Promega, Madison, USA), according to the manufacturer’s protocol using an auto-injecting Infinite M1000 microplate reader (Tecan, Männedorf, Switzerland), following a flash luminescence protocol. The luciferase activity was normalized to transfection efficiency (Firefly raw light unit readout divided by Renilla raw light unit readout) and further expressed as fold change compared to the non-treated controls.
(§5) In terms of the NOEC/LOEC analyses, for both approaches (DLR and viability), mean background values (blanks) were subtracted from the raw values, and the data was computed as fold induction in relation to the negative controls. Means of every experiment were pooled (experimental unit n = 3–5; observational unit N = 9–15). Normality was tested by Shapiro–Wilk and Kolmogorov–Smirnov tests (both significance level alpha = 0.05) and analyzed graphically via normal-qq-plot. Non-normal data were log-transformed and re-analyzed. Given normality, statistically differing significance in the output signal from the negative controls was assessed via one-way ANOVA, followed by Dunnett’s post hoc test (for multiple comparisons vs. control). Residuals were graphically analyzed by quantile–quantile plot (actual vs. predicted residuals), homoscedasticity plot (absolute residuals vs. fitted), and residual plot (residuals vs. fitted) to ensure ANOVA criteria were met. Further, Brown–Forsythe and Bartlett’s tests were conducted to check for the residuals’ homoscedasticity and normality. Beyond statistical significance, for all viability tests, a threshold of 80% as compared to the negative control (corresponding 0.8) was determined as biologically significant and marked with a dotted red line within all respective graphs. […]

[2] = system: AhR transcription factor activation (AhR/ARNT/XRE pathway); assay: as above; conditions: for EC20 (normalized): 4PL regression
Method: as §1, §2, §3, §4, §5

ZFL cells = assay: MTS/BCA-multiplex viability assay on transiently transfected ZFL cells
Method: In parallel to the DLR assays, MTS/BCA-multiplex assays were conducted on identically treated cells. The MTS/BCA-multiplex assay, which is described in detail in (Lungu-Mitea et al. [2021]), scores NADPH-turnover and total protein amount as apical endpoints of cell viability or cytotoxicity. After 24 h exposure, the spiked nutrition medium was discharged, cells were washed once in 100 µL/well PBS, and 100 µL/well Earle’s Balanced Salt Solution (EBSS; Gibco, Paisley, UK) was added. MTS-based CellTiter 96® AQueous One Solution Cell Proliferation Assay (Promega, Madison, USA) was conducted following the manufacturer’s protocol. Seventeen percent (v/v) MTS reagent were added to the wells. After 2 h of incubation at 28 °C and atmospherical CO2, formazan product turnover absorbance was measured at 490 nm using an Infinite M1000 microplate reader. Afterwards, EBSS and MTS reagents were removed. Cells were washed once in 100 µL/well PBS and lysed in 20-µL PLB at RT for 30 min. Bicinchoninic Acid Protein Assay (BCA, Sigma-Aldrich, St. Louis, USA) was conducted following the manufacturer’s protocol. One hundred eighty microliters of BCA-reagent was added to every well, plates were agitated shortly, and incubated for 20 min at 60 °C. After cooling down for 15 min at RT, absorbance was measured at 562 nm using an Infinite M1000 microplate reader.
In terms of the NOEC/LOEC analyses, for both approaches (DLR and viability), mean background values (blanks) were subtracted from the raw values, and the data was computed as fold induction in relation to the negative controls. Means of every experiment were pooled (experimental unit n = 3–5; observational unit N = 9–15). Normality was tested by Shapiro–Wilk and Kolmogorov–Smirnov tests (both significance level alpha = 0.05) and analyzed graphically via normal-qq-plot. Non-normal data were log-transformed and re-analyzed. Given normality, statistically differing significance in the output signal from the negative controls was assessed via one-way ANOVA, followed by Dunnett’s post hoc test (for multiple comparisons vs. control). Residuals were graphically analyzed by quantile–quantile plot (actual vs. predicted residuals), homoscedasticity plot (absolute residuals vs. fitted), and residual plot (residuals vs. fitted) to ensure ANOVA criteria were met. Further, Brown–Forsythe and Bartlett’s tests were conducted to check for the residuals’ homoscedasticity and normality. Beyond statistical significance, for all viability tests, a threshold of 80% as compared to the negative control (corresponding 0.8) was determined as biologically significant and marked with a dotted red line within all respective graphs.

Compound: O=c1cc(-c2ccccc2)oc2ccc3ccccc3c12 [BNF, β-naphthoflavone]
- effect on AhR-related signal ([2]; 300 nM BNF, pGudluc7.5 with non-viral promoter normalization vectors (Fig. 1C + D)): statistically significant inhibition
- maximum induction of AhR-related luminescence ([2]; BNF at 10 nM, pGL4.43 + pRL-null[zfEF1aPro] (Fig. S5)): 3.9 fold
- LOEC ([2]; BNF exposure, pGL4.43 + pRL-null[zfEF1aPro] (Fig. S5)): 3 nM
- EC50 ([2]; BNF exposure, setup (a) pGL4.43 + pGL4.70, bell-shaped regression, normalized induction): 2.95 nM
- induction of AhR-related luciferase signal ([2]; BNF screening, co-transfection with pGudluc7.5 (Figs. 1C + D, 2, S4)): no overall statistically significant induction
- induction of AhR-related luciferase response ([2]; BNF screening, pGL4.43 + pGL4.74, pGL4.43 + pRL-SV40, pGL4.43 + pGL4.73 (viral promoters)): 1.5- to threefold
- statistically significant cytotoxicity (ZFL cells; BNF 3-300 nM, pGL4.43 with any viral promoter-bearing vector (Fig. S3)): No statistically significant cytotoxicity
- cytotoxicity by biological threshold (0.8) (ZFL cells; BNF highest exposure concentration, pGL4.43 + pRL-SV40 and pRL-CMV, at least one endpoint (Fig. S3D + F)): depicted cytotoxicity by biological threshold definition
- cytotoxicity (statistical or biological significance) (ZFL cells; BNF highest exposure concentration, pGudluc7.5 + CMV and SV40-bearing vectors, at least one apical endpoint (Fig. S4C-F)): Cytotoxicity was recorded
- statistically significant cytotoxicity (MTS and BCA endpoints) (ZFL cells; BNF, entire concentration range up to 1 µM, non-viral promoter setups (Fig. 1)): no statistically significant cytotoxicity

Compound: Clc1cc2c(cc1Cl)Oc1cc(Cl)c(Cl)cc1O2 [TCDD, 2,3,7,8-tetrachlorodibenzo-p-dioxin]
- EC50 at 24 h ([1]; setup (a) pGL4.43 + pGL4.70, read-out: EC50 (normalized)): 0.612 nM
- EC50 at 24 h ([1]; setup (a) pGL4.43 + pGL4.70, read-out: EC50 (relative; non-normalized)): 0.595 nM
- EC50 at 24 h ([1]; setup (b) pGL4.43 + pRL-null, read-out: EC50 (normalized)): 2.7 nM
- EC50 at 24 h ([1]; setup (b) pGL4.43 + pRL-null, read-out: EC50 (relative; non-normalized)): 1.31 nM
- EC50 at 24 h ([1]; setup (c) pGudLuc7.5 + pRL-null[zfEF1aPro], read-out: EC50 (normalized)): 1.15 nM
- EC50 at 24 h ([1]; setup (c) pGudLuc7.5 + pRL-null[zfEF1aPro], read-out: EC50 (relative; non-normalized)): 1.13 nM
- EC50 at 24 h ([1]; setup (d) pGL4.43 + pRL-null[zfEF1aPro], read-out: EC50 (normalized)): 1.45 nM
- EC50 at 24 h ([1]; setup (d) pGL4.43 + pRL-null[zfEF1aPro], read-out: EC50 (relative; non-normalized)): 0.877 nM
- EC50 at 24 h ([1]; setup (e) pGudLuc7.5 + pRL-null, read-out: EC50 (normalized)): 0.661 nM
- EC50 at 24 h ([1]; setup (e) pGudLuc7.5 + pRL-null, read-out: EC50 (relative; non-normalized)): 0.685 nM
- EC50 at 24 h ([1]; setup (f) pGudLuc7.5 + pGL4.70, read-out: EC50 (normalized)): 1.26 nM
- EC50 at 24 h ([1]; setup (f) pGudLuc7.5 + pGL4.70, read-out: EC50 (relative; non-normalized)): 1.07 nM
- LOEC ([2]; TCDD exposure 24 h, setup (d) pGL4.43 + pRL-null[zfEF1aPro]): 0.1 nM
- LOEC ([2]; TCDD exposure 24 h, setup (e) pGudLuc7.5 + pRL-null): 1 nM
- LOEC ([2]; TCDD exposure 24 h, setup (f) pGudLuc7.5 + pGL4.70): 1 nM
- EC20, all co-transfection setups ([2]; TCDD exposure, all recorded within this range): ~0.2 nM
- plateau of relative induction ([2]; TCDD exposure, pGudluc7.5 + pRL-null[zfEF1aPro] (Fig. 5A)): approximately 26 fold
- EC20 (normalized) ([2]; TCDD exposure, setup (d) pGL4.43 + pRL-null[zfEF1aPro]): 0.282 nM
- EC20 (normalized) ([2]; TCDD exposure, setup (e) pGudLuc7.5 + pRL-null): 0.245 nM
- EC20 (normalized) ([2]; TCDD exposure, setup (f) pGudLuc7.5 + pGL4.70): 0.204 nM
- cytotoxicity (MTS) (ZFL cells; TCDD 0.1-100 nM, pGudluc7.5 + pRL-null[zfEF1aPro] (Fig. S7)): none
